Consider 8 compounds from US8193160B2 (priority 2006, dated 2012).

The first assay has as its system abc3Δ mutant. It is filed as cell-based, Magnaporthe grisea.
Turning to `OO` [hydrogen peroxide], the “growth under oxidative stress” value is recorded as “lethal”.

A further assay deals with Magnaporthe vegetative mycelia, abc3Δ mutant. The assay is classed as cell-based.
Take `CCCCNC(=O)n1c(NC(=O)OC)nc2ccccc21` [Benomyl]: the “Minimum Inhibitory Concentration (MIC), abc3Δ” value stood at 2 µg/mL.

With `C[C@H]1CCC/C=C/[C@@H]2C[C@H](O)C[C@H]2[C@H](O)/C=C/C(=O)O1` [Brefeldin A], the “Minimum Inhibitory Concentration (MIC), abc3Δ” value was 40 µg/mL.

On to `OC(Cn1cncn1)(Cn1cncn1)c1ccc(F)cc1F` [Fluconazole], for which the “Minimum Inhibitory Concentration (MIC), abc3Δ” value was determined as 2500 µg/mL.

For the compound `CCC(=C/[C@H](C)C/C=C/C(C)=C/[C@@H](C)C(=O)[C@@H](C)[C@H](O)[C@@H](C)C/C(C)=C/C(=O)O)/C=C/[C@@H]1OC(=O)C=C[C@@H]1C` [Leptomycin B], the “Minimum Inhibitory Concentration (MIC), abc3Δ” value is 0.0075 µg/mL.

As for `CC(C)[C@@H]1NC(=O)[C@H](C)OC(=O)[C@@H](C(C)C)NC(=O)[C@@H](C(C)C)OC(=O)[C@H](C(C)C)NC(=O)[C@H](C)OC(=O)[C@@H](C(C)C)NC(=O)[C@@H](C(C)C)OC(=O)[C@H](C(C)C)NC(=O)[C@H](C)OC(=O)[C@@H](C(C)C)NC(=O)[C@@H](C(C)C)OC1=O` [Valinomycin], the “Minimum Inhibitory Concentration (MIC), abc3Δ” value was found to be 3 µg/mL.

Actinomycin D: the “Minimum Inhibitory Concentration (MIC), abc3Δ” value was 3.5 µg/mL.

On to Gramicidin D, for which the “Minimum Inhibitory Concentration (MIC), abc3Δ” value was 180 µg/mL.
